pIC50: −log10 of the molar value.
Key:
[1] = Half life in human liver microsomes at 10 uM up to 2 hrs at 37 degC in presence of NADPH-regenerating system by UPLC/MS analysis
Cytochrome P450 2E1 = Cytochrome P450 2E1 (Homo sapiens, UniProt P05181); test: Inhibition of CYP2E1 in human liver microsomes using chlorzoxazone as substrate preincubated for 5 mins followed by addition of NADPH-regenerating system and measured after 15 mins by UPLC-MS analysis
Cytochrome P450 1A2 = molecular target: T1, Cytochrome P450 1A2 (Homo sapiens, UniProt P05177); test: Inhibition of CYP1A2 in human liver microsomes using phenacetin as substrate preincubated for 5 mins followed by addition of NADPH-regenerating system and measured after 15 mins by UPLC-MS analysis
T1 sequence (P05177 whole entry): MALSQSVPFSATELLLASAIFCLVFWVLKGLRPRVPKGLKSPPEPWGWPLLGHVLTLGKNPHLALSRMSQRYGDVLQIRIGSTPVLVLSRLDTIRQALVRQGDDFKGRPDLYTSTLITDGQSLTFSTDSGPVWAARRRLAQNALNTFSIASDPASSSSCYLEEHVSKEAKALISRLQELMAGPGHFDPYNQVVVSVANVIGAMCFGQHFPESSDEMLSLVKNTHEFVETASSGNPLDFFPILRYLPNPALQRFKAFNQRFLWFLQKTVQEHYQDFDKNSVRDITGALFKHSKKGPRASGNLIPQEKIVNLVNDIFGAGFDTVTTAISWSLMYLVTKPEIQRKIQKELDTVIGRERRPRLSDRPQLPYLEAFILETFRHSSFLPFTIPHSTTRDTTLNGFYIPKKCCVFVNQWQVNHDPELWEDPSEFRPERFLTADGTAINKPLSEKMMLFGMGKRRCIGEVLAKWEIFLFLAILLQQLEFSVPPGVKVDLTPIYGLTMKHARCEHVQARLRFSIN

Cytochrome P450 2D6 = Cytochrome P450 2D6 (Homo sapiens, UniProt P10635); test: Inhibition of CYP2D6 in human liver microsomes using dextromethorphan as substrate preincubated for 5 mins followed by addition of NADPH-regenerating system and measured after 15 mins by UPLC-MS analysis
Chain of Cytochrome P450 2D6 (P10635 whole entry): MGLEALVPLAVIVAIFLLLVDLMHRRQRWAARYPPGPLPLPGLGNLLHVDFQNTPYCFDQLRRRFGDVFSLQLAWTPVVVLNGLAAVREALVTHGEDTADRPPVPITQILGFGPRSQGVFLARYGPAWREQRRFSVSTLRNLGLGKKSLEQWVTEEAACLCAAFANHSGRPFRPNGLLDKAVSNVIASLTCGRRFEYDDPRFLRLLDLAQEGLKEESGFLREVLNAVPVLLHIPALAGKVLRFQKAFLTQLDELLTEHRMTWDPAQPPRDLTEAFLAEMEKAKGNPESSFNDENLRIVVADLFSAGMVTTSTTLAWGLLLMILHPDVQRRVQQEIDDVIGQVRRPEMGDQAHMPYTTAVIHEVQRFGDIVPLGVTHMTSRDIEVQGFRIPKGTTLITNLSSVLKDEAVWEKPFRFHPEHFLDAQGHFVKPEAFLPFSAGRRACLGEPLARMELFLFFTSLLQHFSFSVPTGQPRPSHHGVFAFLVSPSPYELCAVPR

Cytochrome P450 2C8 = molecular target: T2, Cytochrome P450 2C8 (Homo sapiens, UniProt P10632); test: Inhibition of CYP2C8 in human liver microsomes using amodiaquine as substrate preincubated for 5 mins followed by addition of NADPH-regenerating system and measured after 15 mins by UPLC-MS analysis
T2 sequence (P10632 whole entry): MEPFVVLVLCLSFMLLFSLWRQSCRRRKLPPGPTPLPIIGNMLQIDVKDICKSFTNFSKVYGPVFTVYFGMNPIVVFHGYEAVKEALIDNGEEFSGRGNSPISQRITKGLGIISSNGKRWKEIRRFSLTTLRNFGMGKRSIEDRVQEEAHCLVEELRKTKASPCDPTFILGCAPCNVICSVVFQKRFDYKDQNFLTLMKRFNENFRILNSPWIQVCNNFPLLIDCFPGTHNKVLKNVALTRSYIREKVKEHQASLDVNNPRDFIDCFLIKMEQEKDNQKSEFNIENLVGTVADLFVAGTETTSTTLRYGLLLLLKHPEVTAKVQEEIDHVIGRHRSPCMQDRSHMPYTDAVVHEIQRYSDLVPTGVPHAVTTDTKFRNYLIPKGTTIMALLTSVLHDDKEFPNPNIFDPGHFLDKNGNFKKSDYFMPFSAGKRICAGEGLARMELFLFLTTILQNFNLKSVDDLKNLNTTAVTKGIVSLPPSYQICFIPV

Cytochrome P450 2B6 = molecular target: T3, Cytochrome P450 2B6 (Homo sapiens, UniProt P20813); test: Inhibition of CYP2B6 in human liver microsomes using bupropion as substrate preincubated for 5 mins followed by addition of NADPH-regenerating system and measured after 15 mins by UPLC-MS analysis
T3 sequence (P20813 whole entry): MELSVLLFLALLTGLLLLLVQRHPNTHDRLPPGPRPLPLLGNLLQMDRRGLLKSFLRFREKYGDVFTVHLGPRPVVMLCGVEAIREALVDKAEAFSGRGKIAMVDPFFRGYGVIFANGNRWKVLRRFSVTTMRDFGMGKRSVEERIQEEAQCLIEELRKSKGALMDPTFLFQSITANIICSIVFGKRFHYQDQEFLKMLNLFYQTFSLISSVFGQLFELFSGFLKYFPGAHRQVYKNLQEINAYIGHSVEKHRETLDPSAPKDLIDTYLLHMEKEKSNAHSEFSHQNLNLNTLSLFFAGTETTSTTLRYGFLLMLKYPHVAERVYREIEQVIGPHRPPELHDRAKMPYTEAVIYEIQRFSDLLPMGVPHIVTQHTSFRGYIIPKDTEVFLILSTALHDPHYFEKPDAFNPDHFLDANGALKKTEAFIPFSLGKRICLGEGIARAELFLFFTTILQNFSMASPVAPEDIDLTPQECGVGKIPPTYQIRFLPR

Cytochrome P450 3A4 = Cytochrome P450 3A4 (Homo sapiens, UniProt P08684); test: Inhibition of CYP3A4 in human liver microsomes using midazolam as substrate preincubated for 5 mins followed by addition of NADPH-regenerating system and measured after 15 mins by UPLC-MS analysis
Chain of Cytochrome P450 3A4 (P08684 whole entry): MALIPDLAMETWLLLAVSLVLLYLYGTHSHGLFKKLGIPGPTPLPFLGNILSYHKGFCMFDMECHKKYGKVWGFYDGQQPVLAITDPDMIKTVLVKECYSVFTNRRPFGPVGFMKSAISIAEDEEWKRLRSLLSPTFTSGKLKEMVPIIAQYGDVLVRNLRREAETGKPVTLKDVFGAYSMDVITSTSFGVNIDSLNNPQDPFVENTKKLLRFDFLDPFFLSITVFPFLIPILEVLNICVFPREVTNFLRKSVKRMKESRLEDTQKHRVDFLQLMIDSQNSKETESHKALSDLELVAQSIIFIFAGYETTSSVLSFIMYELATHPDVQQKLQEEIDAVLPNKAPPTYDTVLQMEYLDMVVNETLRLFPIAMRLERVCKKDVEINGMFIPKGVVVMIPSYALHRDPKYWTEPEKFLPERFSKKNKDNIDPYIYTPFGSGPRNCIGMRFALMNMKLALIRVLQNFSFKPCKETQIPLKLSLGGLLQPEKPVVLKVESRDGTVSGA

Cytochrome P450 2C9 = Cytochrome P450 2C9 (Homo sapiens, UniProt P11712); test: Inhibition of CYP2C9 in human liver microsomes using diclofenac as substrate preincubated for 5 mins followed by addition of NADPH-regenerating system and measured after 15 mins by UPLC-MS analysis
Chain of Cytochrome P450 2C9 (P11712 whole entry): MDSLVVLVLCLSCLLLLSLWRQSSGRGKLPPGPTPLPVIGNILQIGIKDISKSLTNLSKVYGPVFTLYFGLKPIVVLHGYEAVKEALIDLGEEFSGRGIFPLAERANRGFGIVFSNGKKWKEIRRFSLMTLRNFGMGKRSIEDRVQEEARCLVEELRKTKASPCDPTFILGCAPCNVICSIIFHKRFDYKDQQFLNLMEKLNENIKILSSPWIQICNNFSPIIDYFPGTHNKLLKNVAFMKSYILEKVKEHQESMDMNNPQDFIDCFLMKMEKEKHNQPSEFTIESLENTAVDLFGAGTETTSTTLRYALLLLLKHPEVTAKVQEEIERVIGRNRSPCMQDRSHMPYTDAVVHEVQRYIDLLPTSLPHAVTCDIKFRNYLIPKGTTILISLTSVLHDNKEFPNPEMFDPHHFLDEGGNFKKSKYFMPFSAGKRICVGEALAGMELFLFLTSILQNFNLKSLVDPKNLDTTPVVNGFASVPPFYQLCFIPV

Cytochrome P450 2C19 = Cytochrome P450 2C19 (Homo sapiens, UniProt P33261); test: Inhibition of CYP2C19 in human liver microsomes using omeprazole as substrate preincubated for 5 mins followed by addition of NADPH-regenerating system and measured after 15 mins by UPLC-MS analysis
Chain of Cytochrome P450 2C19 (P33261 whole entry): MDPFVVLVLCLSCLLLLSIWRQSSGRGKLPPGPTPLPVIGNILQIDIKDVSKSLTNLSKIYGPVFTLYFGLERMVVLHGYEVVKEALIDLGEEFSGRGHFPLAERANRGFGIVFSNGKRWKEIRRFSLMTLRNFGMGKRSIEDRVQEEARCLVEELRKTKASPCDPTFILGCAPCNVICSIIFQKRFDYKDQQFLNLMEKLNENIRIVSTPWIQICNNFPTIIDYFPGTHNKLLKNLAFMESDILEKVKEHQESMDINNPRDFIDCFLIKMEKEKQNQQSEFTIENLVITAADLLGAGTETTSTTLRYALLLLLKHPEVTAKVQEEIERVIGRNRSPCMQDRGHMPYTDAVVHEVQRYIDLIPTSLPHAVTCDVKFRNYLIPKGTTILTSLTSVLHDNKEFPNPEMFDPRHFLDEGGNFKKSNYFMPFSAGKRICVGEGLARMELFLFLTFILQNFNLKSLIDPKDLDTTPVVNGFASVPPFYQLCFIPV

Cytochrome P450 2A6 = molecular target: T4, Cytochrome P450 2A6 (Homo sapiens, UniProt P11509); test: Inhibition of CYP2A6 in human liver microsomes using coumarin as substrate preincubated for 5 mins followed by addition of NADPH-regenerating system and measured after 15 mins by UPLC-MS analysis
T4 sequence (P11509 whole entry): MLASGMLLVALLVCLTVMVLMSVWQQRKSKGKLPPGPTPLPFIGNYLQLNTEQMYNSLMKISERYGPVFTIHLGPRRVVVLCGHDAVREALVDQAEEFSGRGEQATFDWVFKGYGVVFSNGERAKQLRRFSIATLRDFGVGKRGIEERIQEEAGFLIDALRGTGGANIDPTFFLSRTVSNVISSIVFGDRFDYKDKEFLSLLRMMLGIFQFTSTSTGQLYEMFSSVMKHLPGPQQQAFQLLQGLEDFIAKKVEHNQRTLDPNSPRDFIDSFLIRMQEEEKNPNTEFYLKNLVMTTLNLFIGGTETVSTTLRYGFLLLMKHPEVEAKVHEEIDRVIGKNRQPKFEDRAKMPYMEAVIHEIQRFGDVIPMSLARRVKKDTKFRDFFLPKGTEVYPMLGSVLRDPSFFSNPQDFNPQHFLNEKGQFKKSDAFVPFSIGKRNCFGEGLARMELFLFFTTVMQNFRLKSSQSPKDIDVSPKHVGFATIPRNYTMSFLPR

Chain of Cytochrome P450 2E1 (P05181 whole entry): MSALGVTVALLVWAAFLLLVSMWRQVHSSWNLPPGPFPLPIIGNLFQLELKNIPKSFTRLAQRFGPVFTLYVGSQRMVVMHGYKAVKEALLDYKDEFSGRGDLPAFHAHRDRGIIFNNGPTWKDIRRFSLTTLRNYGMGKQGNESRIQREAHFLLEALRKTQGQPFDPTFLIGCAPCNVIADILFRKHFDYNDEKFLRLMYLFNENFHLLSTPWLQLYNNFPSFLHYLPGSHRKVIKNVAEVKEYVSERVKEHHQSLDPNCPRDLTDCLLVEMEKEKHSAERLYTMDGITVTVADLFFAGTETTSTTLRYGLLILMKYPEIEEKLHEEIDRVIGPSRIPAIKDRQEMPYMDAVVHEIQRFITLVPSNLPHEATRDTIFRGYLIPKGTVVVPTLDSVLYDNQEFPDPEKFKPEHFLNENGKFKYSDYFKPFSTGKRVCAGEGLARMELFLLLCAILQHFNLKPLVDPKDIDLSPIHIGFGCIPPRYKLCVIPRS

Structure (SMILES) | t1/2 [1] [min] | pIC50 (Cytochrome P450 2E1) | pIC50 (Cytochrome P450 1A2) | pIC50 (Cytochrome P450 2D6) | pIC50 (Cytochrome P450 2C8) | pIC50 (Cytochrome P450 2B6) | pIC50 (Cytochrome P450 3A4) | pIC50 (Cytochrome P450 2C9) | pIC50 (Cytochrome P450 2C19) | pIC50 (Cytochrome P450 2A6)
Cl.Cl.Cl.NCC#Cc1cnccc1-c1ccncc1 | 36 | < 4.60 | 4.68 | 4.92 | < 4.30 | < 4.60 | < 4.60 |  |  | 
NCC#Cc1cnccc1-c1cncnc1 |  | < 4.60 | < 4.60 | < 4.60 | < 4.30 | < 4.60 | < 4.60 |  |  | 
NCC#Cc1cnccc1-c1ccco1 |  | 5.72 | 5.85 | 5.41 | 5.12 | 5.30 | 4.96 | 5.55 | 5.43 | 
Cl.Cl.Cl.NCc1ccc(-c2cnccc2-c2cccnc2)o1 | > 120 | 4.51 | 5.36 |  | < 4.60 | 5.11 | 4.05 | 4.55 | 4.89 | 
COc1ccncc1C#CCN |  | 4.74 | 4.60 | < 4.30 | < 4.30 | 4.96 | < 4.30 | 4.55 | 5.03 | 
NCC#Cc1cncnc1 |  |  |  |  |  |  |  |  |  | < 5.00
Cc1cncc(C#CCN)c1 |  |  |  |  |  |  |  |  |  | < 5.00
Cc1ccncc1C#CCN.Cl.Cl | 8.4 | 4.72 | 4.96 | 5.62 | 5.07 | 4.70 | 5.25 | 4.44 | 5.10 | 
CCc1ccncc1C#CCN.Cl.Cl | 9.8 | 4.82 | < 4.30 | 5.18 | 4.60 | 4.72 | < 4.30 |  |  | 

Further lines, with some results ahead:

t1/2 [1] [min] | pIC50 (Cytochrome P450 2E1) | pIC50 (Cytochrome P450 1A2) | pIC50 (Cytochrome P450 2D6) | pIC50 (Cytochrome P450 2C8) | pIC50 (Cytochrome P450 2B6) | pIC50 (Cytochrome P450 3A4) | pIC50 (Cytochrome P450 2C9) | pIC50 (Cytochrome P450 2C19) | Structure (SMILES) | pIC50 (Cytochrome P450 2A6)
> 120 | < 4.30 | 4.60 |  | < 4.60 | 4.40 | 4.41 |  |  | Cl.Cl.Cl.Cl.NCc1ccc(-c2cnccc2-c2cncnc2)s1 | 
> 120 | < 4.30 | 5.12 |  | < 4.30 | < 4.60 | < 4.60 | < 4.60 | < 4.60 | Cl.Cl.Cl.Cl.NCc1ccc(-c2cnccc2-c2cncnc2)o1 | 
 | 5.51 | 6.70 | < 4.30 | 5.42 | 7.14 | 5.15 | 5.36 | 5.85 | NCc1ccc(-c2cnccc2-c2ccco2)s1 | 
32 | 4.51 | 5.32 |  | < 4.60 | 5.46 | 3.67 |  |  | Cl.Cl.Cl.NCc1ccc(-c2cnccc2-c2ccncc2)s1 | 

Source: ChEMBL document CHEMBL4145649, “Identification of the 4-Position of 3-Alkynyl and 3-Heteroaromatic Substituted Pyridine Methanamines as a Key Modification Site Eliciting Increased Potency and Enhanced Selectivity for Cytochrome P-450 2A6 Inhibition” (J Med Chem, 2018)
